“And” between values parts separate entries of the source, which are not always exact repeats. Identical values can stand only once.

Usually Kd stands for the concentration at which binding is half-saturated.

One data set has as its system Grb2 nSH3. To be noted: single alanine substitution, ITC; cited from earlier work.
Data set [1] has as its target T1, Grb2 N-terminal SH3 (nSH3) domain (Homo sapiens, UniProt P62993).
T1 construct: The plasmid to express the Grb2 nSH3 domain (residues 1–57) was constructed by using a pGEX-6P expression vector; GST (N, cleaved yes); made in house; host or cells: E. coli BL21 (DE3)
Kind of data set: Minor (cis Xaa-Pro) peaks in 1H-13Cα HSQC, Grb2 nSH3-bound state. Type of data set: physicochemical. The note with it: PBS in 2H2O, 25°C. As for the experimental part: The relative intensities of the minor peaks with respect to the major peaks for these residues were 10% for Val1, 3% for Pro2, 14% for Pro4, 10% for Val5, and 6% for Pro6.
The buffer system for NMR experiments was PBS in ^2H2O. […] Data were processed using the NMRPipe/NMRDraw software package. Peak picking and spectral analysis were performed using the Sparky program. Conformational analyses based on chemical shifts were conducted using the Random Coil Index (RCI) program[19] on the web server (http://randomcoilindex.com/).

On the set-up of data set [2]: method as in earlier work. The note with it: free state, cited from earlier work.
A short description of data set [3]: 13Cα CPMG relaxation dispersion of free VPP peptide (Grb2 nSH3 absent). The note with it: 25°C. In kind it is physicochemical. The protocol: The global exchange parameters of the exchange rate, kex; the fractional population of the minor state, Pb were calculated from the dispersion curves of Val5 and Arg8. Then, the chemical shift difference between two states, Δω; the target function of fitting error, χ^2; and the nonexchangeable contribution of R2,eff, R2,0 for each residue were calculated using the global exchange parameters based on a two-state exchange model. […] The kex values were slightly larger than the Δω values, indicating a fast or intermediate exchange process on the chemical shift time scale. The exchange rate kex is defined as kex = kon[P] + koff, where [P] is the concentration of the protein. […]
Two-dimensional ^1H-^13C correlated spectra were collected as series of data sets with CPMG frequencies (νCPMG) of 30, 60, 120, 180, 300, 450, and 600 Hz. […] Spectra were recorded as 62 × 600 complex points with a 2.6-s repetition delay and 32 scans for each increment. […]
Peak intensities of the ^13Cα relaxation dispersion data were quantified using the Sparky program. The transverse relaxation constant, R2,eff, for each νCPMG frequency was calculated as R2,eff = −ln(I(νCPMG)/I0)/Trelax, where I(νCPMG) is the peak intensity obtained for a given value of νCPMG and I0 is the peak intensity obtained when the CPMG block is omitted. […]

In data set [4] the target is T1, Grb2 N-terminal SH3 (nSH3) domain. As to the kind of experiment: 13Cα CPMG relaxation dispersion of VPP peptide with Grb2 nSH3. Type of data set: binding. The protocol: Non-labelled VPP (10 mM) peptide mixed with 0.25 mM Grb2 nSH3 dissolved in ^2H2O solvent was subjected to ^13Cα relaxation dispersion experiments.
The global exchange parameters of the exchange rate, kex; the fractional population of the minor state, Pb were calculated from the dispersion curves of Val5 and Arg8. Then, the chemical shift difference between two states, Δω; the target function of fitting error, χ^2; and the nonexchangeable contribution of R2,eff, R2,0 for each residue were calculated using the global exchange parameters based on a two-state exchange model. […] The exchange rate kex is defined as kex = kon[P] + koff, where [P] is the concentration of the protein. In this experimental condition, [P] is assumed to be zero because the concentration of the ligand is much higher than that of the protein. Thus, kex = koff. The affinity of the ligand to the protein, i.e., Kd, is defined as Kd = koff/kon. If kon is diffusion-controlled, kon ~ 10^8 M^−1s^−1. […] However, as reported by Lundström et al. Cα and Cβ atoms of valine are simultaneously incorporated to the final products from [^13C-2]-glucose as a sole carbon source by using an E.coli expression system. Thus, isolated ^13Cα-selective labelled valine residues cannot be prepared for this experimental purpose.
Two-dimensional ^1H-^13C correlated spectra were collected as series of data sets with CPMG frequencies (νCPMG) of 30, 60, 120, 180, 300, 450, and 600 Hz. The constant-time relaxation delay Trelax was set to 66.7 ms. Spectra were recorded as 62 × 600 complex points with a 2.6-s repetition delay and 32 scans for each increment. The total experimental time was 24 h for both 600 and 500 MHz spectrometers.
Peak intensities of the ^13Cα relaxation dispersion data were quantified using the Sparky program. The transverse relaxation constant, R2,eff, for each νCPMG frequency was calculated as R2,eff = −ln(I(νCPMG)/I0)/Trelax, where I(νCPMG) is the peak intensity obtained for a given value of νCPMG and I0 is the peak intensity obtained when the CPMG block is omitted. The CPMG dispersion curves were fitted numerically as a two-state exchange model using an in-house program described elsewhere. The fitting calculation extracted the following terms as the global parameters: the exchange rate, kex; the fractional population of the minor state, Pb; and the residue specific parameters, including the magnitude of the chemical shift difference between two states, Δω; the target function of fitting error, χ^2; and the nonexchangeable contribution of R2,eff, R2,0.

Data set [5] has as its target Sos-derived VPP peptide (Homo sapiens) (UniProt Q07889). To be noted: cited from earlier work.

T1 sequence (P62993 1-57): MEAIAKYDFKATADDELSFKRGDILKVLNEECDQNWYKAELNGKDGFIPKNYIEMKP
Sequence of Grb2 nSH3 (from UniProt P62993) (P62993 1-58): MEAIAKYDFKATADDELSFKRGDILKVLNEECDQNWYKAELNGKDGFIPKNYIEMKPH

For the compound `CC(C)C[C@H](NC(=O)[C@@H]1CCCN1C(=O)CN)C(=O)NCC(=O)N[C@@H](CO)C(=O)N[C@H](C(=O)N1CCC[C@H]1C(=O)N1CCC[C@H]1C(=O)N1CCC[C@H]1C(=O)N[C@H](C(=O)N1CCC[C@H]1C(=O)N1CCC[C@H]1C(=O)N[C@@H](CCCNC(=N)N)C(=O)N[C@@H](CCCNC(=N)N)C(=O)N[C@@H](CCCNC(=N)N)C(=O)O)C(C)C)C(C)C` [VPP peptide], the “residues critical for interaction with Grb2 nSH3” value in the data set on Grb2 nSH3 was “Pro3, Val5, Pro6, and Arg8 of the VPP peptide are critical for interaction with Grb2 nSH3”. The “minor (cis) peaks in bound state” value in data set [1] was “lack of minor peaks in the bound state”. In addition, in data set [2] (NMR and circular dichroism), the PPII helix structure is ~ 60%. For the same compound, in data set [2], the “minor (cis) conformation” value is 9%. The relaxation dispersion curves result in data set [3] is listed as “the dispersion curves were flat”. The “population of the minor state (Pb), in percent” value in data set [4] (10 mM peptide, 0.25 mM Grb2 nSH3, 25°C, bound population expected from sample 2.5%) is ~ 2.6%. In addition, the “exchange rate, kex” value in data set [4] (global fit of Val5 and Arg8, two-state exchange model, 10 mM VPP peptide, 0.25 mM Grb2 nSH3, PBS in 2H2O, 25°C, 11.7 and 14.1 T, kex = koff assumed) turned out to be 1037.87 s⁻¹. Moreover, in data set [4] (global fit of Val5 and Arg8, two-state model, 10 mM peptide, 0.25 mM Grb2 nSH3, 25°C, as fraction), the “fractional population of the minor state, Pb” value stood at 0.026. In addition, the significant relaxation dispersion entry in data set [4] (presence of Grb2 nSH3, 11.7 and 14.1 T, 25°C) is “Significant dispersion was only observed for Val5 and Arg8 and not for the other residues”. Moreover, the Δω in data set [4] (range over all residues, 13Cα, relaxation dispersion) was 0–1.5 ppm; in data set [4] (residue P3, 13Cα shift difference between two states from relaxation dispersion fit, 25°C) it was 0.09 ± 0.18 ppm; in data set [4] (residue R8, 13Cα shift difference between two states from relaxation dispersion fit, 25°C) it was 1.53 ppm and 1.53 ± 0.42 ppm; in data set [4] (residue R9, 13Cα shift difference between two states from relaxation dispersion fit, 25°C) it was 0.23 ± 0.20 ppm; in data set [4] (residue R10, 13Cα shift difference between two states from relaxation dispersion fit, 25°C) it was 0.13 ± 0.17 ppm; in data set [4] (residue V5, 13Cα shift difference between two states from relaxation dispersion fit, 25°C), 1.47 ppm and 1.47 ± 0.52 ppm. In data set [4] (residues P4/P7 (overlapped), 13Cα shift difference between two states from relaxation dispersion fit, 25°C), the Δω stood at 0.00 ± 0.16 ppm.
In the case of Grb2 nSH3 (from UniProt P62993), the Kd in data set [5] is 3.5 µM.

These data come from article PMC6505672, “Conformational change of Sos-derived proline-rich peptide upon binding Grb2 N-terminal SH3 domain probed by NMR” (Scientific Reports, 2013).
